Measurements from patent publication US20060068012A1, “Process for preparing poly (vinyl alcohol) drug delivery devices with humidity control” (Bausch & Lomb Incorporated, priority 2004, published 2006).

Assay: thermal stability of the medicament at poly(vinyl alcohol) curing temperature
Type: physicochemical
Conditions: heating during curing of poly(vinyl alcohol)
Protocol: Optionally, the temperature proximate the first drug delivery device and the temperature proximate the second drug delivery device is a minimum of about 120° C. and a maximum of about 210° C. In an embodiment, the temperature proximate the first drug delivery device and the temperature proximate the second drug delivery device is a minimum of about 125° C., about 130° C., about 135° C. or about 140° C. and/or a maximum of about 210° C., about 200° C., about 180° C., about 170° C., about 150° C. or about 140° C. The desired temperature for curing the poly(vinyl alcohol) is dependent upon several factors. If a temperature is selected below about 120° C., the poly(vinyl alcohol) will not cure effectively. If the temperature is above about 210° C., decomposition of the poly(vinyl alcohol) will occur. If the poly(vinyl alcohol) is cured in the presence of the medicament, the stability of the medicament must be considered. For example, flucinolone acetonide begins to decompose above a temperature of about 165° C. Thus, it is desired that a temperature for curing poly(vinyl alcohol) in the presence of flucinolone acetonide be in the range of about 120° C. to about 150° C. and preferably about 135° C.

CC1(C)O[C@@H]2C[C@H]3[C@@H]4C[C@H](F)C5=CC(=O)C=C[C@]5(C)[C@@]4(F)[C@@H](O)C[C@]3(C)[C@]2(C(=O)CO)O1 [flucinolone acetonide]
temperature above which the medicament begins to decompose: > 165 °C
